# Measured values taken from patent US12637434B2, “Salt of arylaminoquinazoline-containing compound, and preparation method therefor and use thereof” (priority 2020, dated 2026).
# “Also recorded” adds a separate entry of the source. Read-outs that look alike come from different tables or passages of the source.
# Assays:
# human melanoma A375 = test: Pharmacodynamic experiment of human melanoma A375 nude mice xenograft tumor model; type: in vivo, nu/nu female nude mice; conditions: for Animal number (Survival/total) / Tumor weight / Inhibition rate %: once a day, 20 days; for Tumor weight / Inhibition rate %: Day 21; for Inhibition rate %: tumor weight
# Procedure: Pharmacodynamic Experiment of Human Melanoma A375 Nude Mice Xenograft Tumor Model
# A well-growing human melanoma A375 cell suspension was inoculated into the subcutaneous tissue of the forelimb axilla of nu/nu female nude mice in an inoculation volume of 0.1 mL containing approximately 1×10^7 tumor cells. When the tumor volume grew to 100 mm^3 or more, the mice with good tumor growth were selected, and the animals were evenly divided into 5 groups according to the tumor volume: a Vehicle group, a Vandetanib 12.5 mg/kg group, a Vandetanib 25 mg/kg group, an Example 1 sample 12.5 mg/kg group, and an Example 1 sample 25 mg/kg group, and there were 6 animals in each group. The Vehicle group was orally administered with distilled water, and the remaining groups were orally administered with the corresponding tested drugs in a dosing volume of 20 mL/kg, once a day, and continuously administered for 20 days. The animals were housed normally after administration, and the anti-tumor effect of the tested drugs was dynamically observed by using the method of measuring the diameter of the tumors. At the end of the experiment (Day 21), the animals were sacrificed, and the tumors, were stripped and weighed, and the tumor inhibition rate was calculated.
# [1] = Solubility test in water and pH 2.0 buffer (HPLC); type: physicochemical; conditions: for solubility in pH 2.0 buffer compared with Preparation Example 1 (in words): acidic conditions; for solubility: 25 °C, thermodynamic from solid; for Solubility (25° C., mg/mL) Medium: pH 2.0 buffer / Solubility (25° C., mg/mL) Medium: Water / solubility: 25° C.
# Procedure: 2. Solubility (Water and pH 2.0 Buffer)
# Detection Instrument: Agilent 1260 High Performance Liquid Chromatograph
# Detection medium: purified water, pH 2.0 phosphoric acid-disodium hydrogen phosphate buffer
# Preparation of control solution: it was taken that an appropriate amount of the referen ce substance of the compound of Formula 1, accurately weighed, dissolved completely by solven t and diluted to 100 μg/mL. 10 μL of the prepared solution was accurately measured and the conte nts of Compound 1 were determined by HPLC.
# The salts obtained in Preparation Example 1, Examples 1 to 4 and 9 and Comparative Examples 1 to 2 were tested for solubility in water and pH 2.0 buffer.
# Long-term stability test = type: physicochemical; conditions: for Purity (5 months) / Appearance / Crystalline form: 40 ± 2° C., 75% ± 5% RH, 5 months; for Appearance / Crystalline form: sealed with polyethylene film; for Purity (0 month): start of long-term stability test
# Procedure: An appropriate amount of the salt samples obtained in Examples 1 to 4 and 9 were sealed with a polyethylene film and placed for 5 months under the conditions of 40±2° C. and 75%±5% RH, and a long-term test was carried out.
# Solid stability test = type: physicochemical; conditions: 40° C./75% RH (open), 7 days
# Procedure: The dihydrochloride salt of Example 1 and the dihydrochloride salt tetrahydrate of Example 2 and Example 10 were all placed under the condition of 40° C./75% RH (open) for 7 days to perform the stability test.
# [2] = Solubility test in biological vehicles (FaSSIF, FeSSIF, SGF); type: physicochemical; conditions: for solubility at 0.5 h: 37 °C, thermodynamic from solid
# Procedure: 9. Determination of Solubility in Biological Vehicles
# The preparation procedures of the biological vehicles (SGF, FeSSIF and FaSSIF) used for solubility determination were shown in the following table:
# Test method: a sample to be tested was added to a biological vehicles and prepared into a solution or suspension having a target concentration of 10 mg/mL. The resulting solution or suspension was shaken continuously at 200 rpm at 37° C. The suspension was filtered at 0.5 hour and the concentration of the compound in the filtrate was determined by using HPLC.
# Solubility Test in Biological Vehicles
# The samples of Example 1 and Example 10 (20 mg each) were weighed, and different biological vehicles (2 mL) were added threreto to perform the solubility test, and the results were shown in Table 11.
# [3] = Slurrying in organic solvents, crystalline form by XRPD; type: physicochemical; conditions: ~15 mg in 0.5 mL of solvents of Table 15, room temperature and 50° C.
# Procedure: Note: The sample of Example 1 (˜15 mg) was added to 0.5 mL of the different solvents listed in Table 15, and slurried at room temperature and 50° C., and the filtered sample was subjected to X-ray powder diffraction. The crystalline form was consistent with that of the dihydrochloride salt obtained in Example 1.
# [4] = Mechanical stability test; type: physicochemical; conditions: mechanical grinding for 5 minutes
# Procedure: Mechanical Stability Test
# An appropriate amount of the dihydrochloride salt of Example 1 was subjected to mechanical grinding for 5 minutes, and X-ray powder diffraction was performed.
# [5] = Solubility test in conventional organic solvents; type: physicochemical
# Procedure: Solubility Test in Conventional Organic Solvents
# The solubility test of the sample of Preparation Example 1 in different organic solvents was carried out by using the method in the Pharmacopoeia (Volume II, the general examples), and the solubility of the sample of Example 1 in different organic solvents was estimated using the gravimetric method, and the results were shown in Table 15.
# [6] = pH 2.0 phosphoric acid-disodium hydrogen phosphate buffer
# [7] = 0.5 h, 37° C., 200 rpm, target concentration 10 mg/mL, unit not given
# [8] = purified water, water, purified water, read-out: Solubility (25° C., mg/mL) Medium: Water
# [9] = Preparation Example 1 by Pharmacopoeia method, Example 1 estimated by gravimetric method
smiles,measurement,setting,value
"COc1cc2c(Nc3ccc(Br)cc3F)ncnc2cc1OCC1CCN(C)CC1 [Vandetanib, reference compound]",Animal number (Survival/total),human melanoma A375; 12.5 mg/kg oral,6/6
same,Tumor weight,human melanoma A375; 12.5 mg/kg oral,2.89 ± 0.67 g
same,Inhibition rate %,human melanoma A375; 12.5 mg/kg oral,15.18%
same,Animal number (Survival/total),human melanoma A375; 25 mg/kg oral,6/6
same,Tumor weight,human melanoma A375; 25 mg/kg oral,1.90 ± 0.93 g
same,Inhibition rate %,human melanoma A375; 25 mg/kg oral,44.15%
COc1cc2c(Nc3ccc(Br)cc3F)ncnc2cc1OCCCCN(C)C [Example 2],"Solubility (25° C., mg/mL) Medium: pH 2.0 buffer",[1]; [6],7.69 mg/mL
same,"Solubility (25° C., mg/mL) Medium: Water",[1]; purified water,34.32 mg/mL
same,solubility in pH 2.0 buffer compared with Preparation Example 1 (in words),[1],slightly lower
same,Purity (5 months),Long-term stability test,98.56%
same,Appearance,Long-term stability test,White powder
same,Crystalline form,Long-term stability test,Unchanged
same,Purity (0 month),Long-term stability test,98.55%
same,Crystalline form,Solid stability test,Unchanged
same,Purity,Solid stability test,98.54%
COc1cc2c(Nc3ccc(Br)cc3F)ncnc2cc1OCCCCN(C)C [Comparative Example 2],"Solubility (25° C., mg/mL) Medium: Water",[1]; purified water,"Jelly-like, solubility"
same,"Solubility (25° C., mg/mL) Medium: Water","[1]; purified water, listed as malate salt",jelly-like
COc1cc2c(Nc3ccc(Br)cc3F)ncnc2cc1OCCCCN(C)C [Example 10],Crystalline form,Solid stability test,Unchanged
same,Purity,Solid stability test,99.74%
same,Solubility in FeSSIF (pH 5.0),"[2]; 0.5 h, 37° C., 200 rpm, target concentration 10 mg/mL, unit inferred",7.3 mg/mL
same,Solubility in FaSSIF (pH 6.5),[2]; [7],"solution, >10"
same,Solubility in SGF (pH 1.2),[2]; [7],"solution, >10"
same,solubility in biological vehicles with different pH (in words),"[2]; FaSSIF, FeSSIF, SGF",good solubility
COc1cc2c(Nc3ccc(Br)cc3F)ncnc2cc1OCCCCN(C)C.O=C(O)C(=O)O [Example 9],solubility,[1]; [8],2.89 mg/mL
same,Purity (5 months),Long-term stability test,99.34%
same,Appearance,Long-term stability test,White powder
same,Crystalline form,Long-term stability test,Unchanged
same,Purity (0 month),Long-term stability test,99.38%
COc1cc2c(Nc3ccc(Br)cc3F)ncnc2cc1OCCCCN(C)C [Comparative Example 1],"Solubility (25° C., mg/mL) Medium: Water",[1]; purified water,"Jelly-like, solubility"
same,"Solubility (25° C., mg/mL) Medium: Water","[1]; purified water, listed as monohydrochloride salt",jelly-like
COc1cc2c(Nc3ccc(Br)cc3F)ncnc2cc1OCCCCN(C)C [Example 3],"Solubility (25° C., mg/mL) Medium: pH 2.0 buffer",[1]; [6],5.00 mg/mL
same,"Solubility (25° C., mg/mL) Medium: Water",[1]; purified water,10.91 mg/mL
same,solubility in pH 2.0 buffer compared with Preparation Example 1 (in words),[1],slightly lower
same,Purity (5 months),Long-term stability test,98.84%
same,Appearance,Long-term stability test,White powder
same,Crystalline form,Long-term stability test,Unchanged
same,Purity (0 month),Long-term stability test,98.83%
COc1cc2c(Nc3ccc(Br)cc3F)ncnc2cc1OCCCCN(C)C.O=C(O)/C=C\C(=O)O [Example 4],solubility in pH 2.0 buffer compared with Preparation Example 1 (in words),[1],slightly better
same,solubility,"[1]; pH 2.0 phosphoric acid-disodium hydrogen phosphate buffer, pH 2, aqueous buffer, pH 2.0 phosphoric acid-disodium hydrogen phosphate buffer, read-out: Solubility (25° C., mg/mL) Medium: pH 2.0 buffer",12.5 mg/mL
same,solubility,[1]; [8],13.7 mg/mL
same,Purity (5 months),Long-term stability test,96.41%
same,Appearance,Long-term stability test,White powder
same,Crystalline form,Long-term stability test,Unchanged
same,Purity (0 month),Long-term stability test,96.72%
COc1cc2c(Nc3ccc(Br)cc3F)ncnc2cc1OCCCCN(C)C [Example 1],crystalline form after slurrying in conventional organic solvents (XRPD),[3],consistent; also recorded: stable
same,"Solubility (25° C., mg/mL) Medium: pH 2.0 buffer",[1]; [6],14.29 mg/mL
same,"Solubility (25° C., mg/mL) Medium: Water",[1]; purified water,40.07 mg/mL
same,solubility in pH 2.0 buffer compared with Preparation Example 1 (in words),[1],slightly better
same,water-solubility (in words),"[1]; water, listed as dihydrochloride salt",best of all samples
same,crystalline form after mechanical grinding (XRPD),[4],not changed
same,Purity (5 months),Long-term stability test,99.60%
same,Appearance,Long-term stability test,White powder
same,Crystalline form,Long-term stability test,Unchanged
same,Purity (0 month),Long-term stability test,99.62%
same,Solubility (mg/mL) in Acetone,[5]; [9],<0.46 mg/mL
same,Solubility (mg/mL) in Acetonitrile,[5]; [9],<0.38 mg/mL
same,Solubility (mg/mL) in Dichloromethane,[5]; [9],<0.44 mg/mL
same,Solubility (mg/mL) in Ethanol,[5]; [9],~0.55 mg/mL
same,Solubility (mg/mL) in Ethyl acetate,[5]; [9],<0.38 mg/mL
same,Solubility (mg/mL) in Isopropanol,[5]; [9],<0.40 mg/mL
same,Solubility (mg/mL) in Tetrahydrofuran,[5]; [9],<0.37 mg/mL
same,solubility in the other seven commonly used organic solvents (in words),[5]; all solvents of Table 15 except methanol,very poor solubility
same,Crystalline form,Solid stability test,Unchanged
same,Purity,Solid stability test,99.64%
same,Animal number (Survival/total),human melanoma A375; 12.5 mg/kg oral,6/6
same,Tumor weight,human melanoma A375; 12.5 mg/kg oral,1.77 ± 0.85 g
same,Inhibition rate %,human melanoma A375; 12.5 mg/kg oral,47.99%
same,Animal number (Survival/total),human melanoma A375; 25 mg/kg oral,6/6
same,Tumor weight,human melanoma A375; 25 mg/kg oral,1.34 ± 1.15 g
same,Inhibition rate %,human melanoma A375; 25 mg/kg oral,60.52%
same,effect on growth of tumors (in words),"human melanoma A375; 12.5 and 25 mg/kg oral, compared with the Vehicle group",significantly inhibit the growth of tumors
same,solubility at 0.5 h,"[2]; FaSSIF, pH 6.5, fassif, 0.5 h, 37° C., 200 rpm, target concentration 10 mg/mL, unit inferred, read-out: Solubility in FaSSIF (pH 6.5)",> 10 mg/mL
same,solubility in biological vehicles with different pH (in words),"[2]; FaSSIF, FeSSIF, SGF",good solubility
same,solubility at 0.5 h,"[2]; FeSSIF, pH 5, fessif, 0.5 h, 37° C., 200 rpm, target concentration 10 mg/mL, unit inferred, read-out: Solubility in FeSSIF (pH 5.0)",5.07 mg/mL
same,solubility at 0.5 h,"[2]; SGF, pH 1.2, simulated gastric fluid, 0.5 h, 37° C., 200 rpm, target concentration 10 mg/mL, unit inferred, read-out: Solubility in SGF (pH 1.2)",> 10 mg/mL
"COc1cc2c(Nc3ccc(Br)cc3F)ncnc2cc1OCCCCN(C)C [Preparation Example 1, 4-(4-bromo-2-fluoroanilino)-6-methoxy-7-[(4-N,N-dimethylamino)butoxy]quinazoline]","Solubility (25° C., mg/mL) Medium: Water",[1]; purified water,0.036 mg/mL
same,water-solubility (in words),[1]; water,very poor water-solubility
same,Solubility (mg/mL) in Acetone,[5]; [9],44.04 mg/mL
same,Solubility (mg/mL) in Acetonitrile,[5]; [9],10.66 mg/mL
same,Solubility (mg/mL) in Dichloromethane,[5]; [9],30.49 mg/mL
same,Solubility (mg/mL) in Ethanol,[5]; [9],205.2 mg/mL
same,Solubility (mg/mL) in Ethyl acetate,[5]; [9],30.38 mg/mL
same,Solubility (mg/mL) in Isopropanol,[5]; [9],51.05 mg/mL
same,Solubility (mg/mL) in Methanol,"[5]; Methanol, Preparation Example 1 by Pharmacopoeia method, Example 1 estimated by gravimetric method",>60 mg/mL
same,Solubility (mg/mL) in Tetrahydrofuran,[5]; [9],201.4 mg/mL
same,solubility,"[5]; organic solvent or mixture, thermodynamic from solid, read-out: solubility in various conventional organic solvents (all)",> 10 mg/mL
